According to US20130266526A1, “DIHYDROXYFUMARIC ACID DERIVATIVES AND THE USE THEREOF FOR SKIN LIGHTENING” (MERCK PATENT GMBH, priority 2010, published 2013):
“Also recorded” adds a separate entry of the source.

Legend:
[1] = system: B16V mouse melanoma cells; assay: B16 V mouse melanoma cell test (melanin content after alpha-MSH stimulation); format: cell-based; details: for Relative melanin content in %: DMSO control = 100, alpha-MSH 10^-8 M, absorption 405 nm
Experimental: B16V mouse melanoma cells (manufacturer: DSMZ; Article No.: ACC370) are transferred into RPMI medium (Invitrogen, Article No.: 31870), to which 10% of FBS (foetal bovine serum; Invitrogen, Article No.: 10499044), 2 mM L-glutamine (Invitrogen, Article No: 25030) and 1 mM sodium pyruvate (Invitrogen, Article No.: 11360) had additionally been added, and incubated at 37° C. and 5% CO2 for 72 h. The medium is separated off, and the cells are washed once with 10 ml of DPBS (Dulbecco's phosphate-buffered salines; Invitrogen, Article No.: 14190), and the medium is subsequently removed by suction. 1 ml of HyQtase cell detachment solution (Hyclone, Article No.: SV30030.01) is added to the cells. The bottle is swirled a number of times, and the HyQtase cell detachment solution is subsequently removed by suction. The cells are then incubated in the incubator at 37° C. and 5% CO2 for 5 min. The cells are taken up in the modified RPMI medium (see above), and the cell count is determined. To this end, the cells are stained with Trypan Blue and counted in a Neubauer counting chamber. The cells are subsequently sown out again in the modified RPMI medium (see above) in a defined cell count of 80,000 cells per well (6-well clear plate, TCT, PS (Nunc)).
The cells are incubated at 37° C. and 5% CO2 for 24 h, the medium is then removed. 1980 μl of the dilution of the respective substance to be tested are subsequently added. For this substance dilution, the substance is dissolved in DMSO and subsequently filtered through a sterile filter (0.2 μm, Millipore, Article No. SLLG013SL). The solution is then diluted with the modified RPMI medium (see above, but in this case the FBS content is only 5%) in such a way that the final concentration of the substance dilution has the desired final concentration as shown in Table 1.
20 μl of an alpha-MSH solution (alpha-melanocyte-stimulating hormone, DMSO, Sigma, Article No.: D2650) are then added, so that the alpha-MSH concentration in the well is 10^−8 M. The plate is subsequently incubated again at 37° C. and 5% CO2 for 24 h. The process described in this section is repeated a further twice in total.
After the final incubation period, the medium is removed by suction, and the cells are washed with 1000 μl of DPBS (Invitrogen, Article No.: 14190). The medium is again removed by suction. […] of HyQtase cell detachment solution (Hyclone, Article No.: SV30030.01) are added to the cells. The 6-well plate is swirled a number of times, and the HyQtase cell detachment solution is subsequently removed by suction. The cells are then incubated in the incubator at 37° C. and 5% CO2 for 5 min. The cells are taken up in 1.5 ml of DPBS (Invitrogen, Article No.: 14190) and transferred into a cup (SARSTEDT, Ref. 72.692.005). The cell count is subsequently determined. To this end, the cells are stained with Trypan Blue and counted in a Neubauer counting chamber. The cells centrifuged for 1 min at 3500 g. The pellets obtained are photographed, and the supernatant is subsequently removed by suction. The pellets are dissolved in 1 ml of 1N NaOH at 80° C. for 1 h and then cooled to RT. Four times 200 μl per cup (as quadruple determination) are subsequently pipetted into a 96-well plate (VWR, Article No.: 4100636981), and the absorption at a wavelength of 405 nm is determined (Safire, Tecan). The content of melanin can be determined in this way by means of a calibration line.

melanin = details: substance alone; Example 5 of WO 01/66105 A1; cited from earlier work

O=C1O[C@H]([C@@H](O)CO)C(O)=C1O [Ascorbic acid]
Relative melanin content in % ([1]; 3 mM): 77.4%

O.O.O=C(O)/C(O)=C(\O)C(=O)O [Dihydroxyfumaric acid dihydrate]
Relative melanin content in % ([1]; 0.5 mM): 13.4% | skin-lightening action in comparison with known active compounds ([1]; comparison of the working example (Table 1), dihydrate): exceeds the action of lactic acid, glycolic acid and even kojic acid by a multiple; also recorded: higher compared with the hydroxy acids lactic acid and glycolic acid

O=C(O)CO [Glycolic acid]
Relative melanin content in % ([1]; 0.5 mM): 67.3%

O=c1cc(CO)occ1O [Kojic acid]
Relative melanin content in % ([1]; 1 mM): 59%

CC(O)C(=O)O (stereo not shown) [Lactic acid]
melanin-reducing action (melanin): 40% | Relative melanin content in % ([1]; 11.1 mM): 57.8%
